According to US12492337B2, “Fluorescent probe, preparation method therefor and use thereof” (FLUORESCENCE DIAGNOSIS (SHANGHAI) BIOTECH COMPANY, priority 2017, dated 2025):

Assays:
[1] = test system: HaloTag protein tag; experiment: Probe mixed with HaloTag protein tag, fluorescence spectrophotometer (Example 86); assay type: biochemical; conditions: 5 μM probe, 10 μM protein tag, 37° C., 1 hour; for Fluorescence enhancement: fluorescence activation multiple after binding protein tag; for Emission/nm: fluorescence emission wavelength
Method: (§1) A probe was mixed with a corresponding HaloTag protein tag to obtain a mixed sample. The final concentration of the probe in the mixed sample was 5 μM and the final concentration of the protein tag was 10 μM. The mixed sample was incubated at 37° C. for 1 hour, and the sample was detected using a fluorescence spectrophotometer.

[2] = Quantum yield of free probe not reacted with protein tag; assay type: physicochemical
Method: as §1

[3] = Viscosity responsiveness: fluorescence intensity in glycerol versus methanol; assay type: physicochemical; conditions: fluorescence intensity in glycerol to that in methanol
Method: The above-mentioned viscosity-responsive fluorescent dye means that the fluorescence intensity of the dye responds to the viscosity of the solution. As the viscosity of the solution increases, the fluorescence intensity increases. Optionally, the viscosity-responsive fluorescent dye is an organic dye molecule which, under the same concentration and excitation wavelength, at 25° C. has a ratio • of the maximum fluorescence emission intensity of the dye in glycerol to the fluorescence intensity in methanol of greater than 2, optionally greater than 5, optionally greater than 10. The concentration of the viscosity-responsive dye ranges from 1×10^−7 M to 1×10^−5 M.

Compound	The quantum yield after binding to Halo-tag [1]	Fluorescence enhancement [1]	Emission/nm [1]	The quantum yield of the free probe [2]	ratio [3]
CC(C)(C)OC(=O)/C(C#N)=C/c1ccc(N(CCOC(=O)NCCCS(=O)(=O)[O-])CCOC(=O)NCCOCCOCCCCCCCl)cc1.[Na+] [Probe5]	0.46	1174	480 nm	<0.001	790
CN(CCOC(=O)NCCOCCOCCCCCCCl)c1ccc(/C=C(\C#N)C(=O)OC(C)(C)C)cc1 [Probe 1]	0.52	500	480 nm	<0.001	560
CN(CCOC(=O)NCCOCCOCCCCCCCl)c1ccc(/C=C(\C#N)c2nc3ccccc3o2)cc1 [Probe 2]	0.48	410	510 nm	0.001	410
CN(CCOC(=O)NCCOCCOCCCCCCCl)c1ccc(/C=C(\C#N)c2nc3ccccc3s2)cc1 [Probe 3]	0.45	512	515 nm	0.0011	399
CC(C)(C)OC(=O)/C(C#N)=C/c1ccc(N(CCO)CCOC(=O)NCCOCCOCCCCCCCl)cc1 [Probe 4]	0.42	490	480 nm	<0.001	562
CN1C(=O)/C(=C/c2ccc(N(C)CCOC(=O)NCCOCCOCCCCCCCl)cc2)N=C1c1ccccc1 [Probe 6]	0.40	989	530 nm	<0.001	1183
CN1C(=O)/C(=C/c2ccc(N(C)CCOC(=O)NCCOCCOCCCCCCCl)cc2)N=C1/C=C/c1ccccc1 [Probe 7]	0.46	1502	580 nm	<0.001	1455
CN(CCOC(=O)NCCOCCOCCCCCCCl)c1ccc(C2=C(C#N)C(=C(C#N)C#N)OC2(C)C)cc1 [Probe 8]	0.47	296	535 nm	0.0018	320
CN(CCOC(=O)NCCOCCOCCCCCCCl)c1ccc(/C=C(\C#N)C(=O)O)cc1 [Probe 9]	0.50	745	480 nm	<0.001	851
CN(CCOC(=O)NCCOCCOCCCCCCCl)c1cc2sc(/C=C(\C#N)C(=O)OC(C)(C)C)cc2s1 [Probe 10]	0.42	431	550 nm	<0.001	655
CN(CCOC(=O)NCCOCCOCCCCCCCl)c1cc2sc(/C=C(\C#N)c3nc4ccccc4o3)cc2s1 [Probe 11]	0.46	520	590 nm	0.0013	422
CN(CCOC(=O)NCCOCCOCCCCCCCl)c1cc2sc(/C=C(\C#N)C(=O)O)cc2s1 [Probe 12]	0.41	750	555 nm	0.0012	405
CN(CCOC(=O)NCCOCCOCCCCCCCl)c1ccc2cc(/C=C(\C#N)C(=O)OC(C)(C)C)sc2c1 [Probe 13]	0.56	816	570 nm	<0.001	391
